The text below walks through data of ChEMBL document CHEMBL1201862, “PubChem BioAssay data set” (2004).

The source made the active and inactive calls.

The nature of experiment [1]: off-target signal loss in HeLa-CEM21 co-culture – HeLa F-luc CTL cells, cherry-picked, counter-screen for HIV-1 Env fusion inhibitor project, dose response (AID 652040).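 Also: potency for signal decrease marking cytotoxic or nonspecific inhibition.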 In kind it is functional, cell-based. (Counterscreens check selectivity or assay interference.)
Experiment [2] deals with T1, Short transient receptor potential channel 4 (Mus musculus, UniProt Q9QUQ5).
T1 sequence (Q9QUQ5 whole entry): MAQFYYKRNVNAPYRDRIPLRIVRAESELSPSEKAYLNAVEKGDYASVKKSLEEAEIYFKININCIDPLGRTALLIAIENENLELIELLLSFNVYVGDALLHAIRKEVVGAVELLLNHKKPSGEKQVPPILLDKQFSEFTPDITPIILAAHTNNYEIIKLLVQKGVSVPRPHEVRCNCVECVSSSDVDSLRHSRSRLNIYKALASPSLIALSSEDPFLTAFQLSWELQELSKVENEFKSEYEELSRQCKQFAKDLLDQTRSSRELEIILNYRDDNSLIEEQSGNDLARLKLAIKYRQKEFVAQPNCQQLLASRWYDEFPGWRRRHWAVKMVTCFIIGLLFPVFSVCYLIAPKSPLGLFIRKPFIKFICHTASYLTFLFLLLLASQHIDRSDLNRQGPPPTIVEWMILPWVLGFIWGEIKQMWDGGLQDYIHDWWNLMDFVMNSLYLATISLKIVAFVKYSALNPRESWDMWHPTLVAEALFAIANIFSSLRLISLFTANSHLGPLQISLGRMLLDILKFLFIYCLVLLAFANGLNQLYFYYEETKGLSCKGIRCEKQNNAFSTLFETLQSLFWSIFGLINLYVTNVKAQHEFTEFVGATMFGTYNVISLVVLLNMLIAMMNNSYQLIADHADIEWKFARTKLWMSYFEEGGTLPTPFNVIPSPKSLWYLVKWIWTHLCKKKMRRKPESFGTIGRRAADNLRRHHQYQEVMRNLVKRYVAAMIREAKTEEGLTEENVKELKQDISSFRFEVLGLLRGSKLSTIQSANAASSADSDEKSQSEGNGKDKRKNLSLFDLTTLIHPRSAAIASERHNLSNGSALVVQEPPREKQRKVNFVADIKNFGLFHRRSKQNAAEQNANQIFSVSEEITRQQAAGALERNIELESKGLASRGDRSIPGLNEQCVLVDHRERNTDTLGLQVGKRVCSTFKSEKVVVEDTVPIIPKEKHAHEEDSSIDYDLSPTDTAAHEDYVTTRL
In words: mouse TRPC4 channel activators, dose response, cell-based, HEK293 TRPC4/mu-opioid, Fluo-4 calcium (AID 434937). In kind it is functional.

Experiment [3] is described as follows: CEM21 lymphoblast cell cytotoxicity, dose response, cytotoxicity control for viral fusion inhibitor project, CellTiter-Glo luminescence, cherry-picked (AID 652042).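 Also: potency for signal decrease meaning cytotoxicity.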 In kind it is functional, cell-based. (ATP-based viability assays read luminescence as a measure of living cells.)
Experiment [4] in a line: ZM109 Env clade C HIV-1 fusion inhibitors, dose response, HeLa effector, CEM target cells, luciferase, cherry-pick (AID 652058). It is filed as functional, cell-based.
Experiment [5] is described as follows: inhibitors of HIV Env-driven cell fusion, dose response, cherry-pick (AID 652057). It is filed as functional, cell-based.
Experiment [6] can be described thus: inhibitors of clade B AD8 Env fusion, dose response, cell-based, cherry-pick (AID 652062).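 Also: luciferase signal from cell-cell fusion driven by HIV-1 clade B AD8 Env; potency is for inhibitors of fusion seen as a drop in luminescence.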 It is filed as functional.
The target of experiment [7] is Albumin (Bos taurus, UniProt P02769). In words: Counterscreen for inhibitors of T-cell receptor (TCR)-CD3 interaction: Fluorescence-based biochemical high throughput dose response assay to identify inhibitors of T-cell receptor (TCR)-CD3 interaction using a TAMRA-labeled BSA probe. In kind it is functional.
Chain of Albumin (P02769 whole entry): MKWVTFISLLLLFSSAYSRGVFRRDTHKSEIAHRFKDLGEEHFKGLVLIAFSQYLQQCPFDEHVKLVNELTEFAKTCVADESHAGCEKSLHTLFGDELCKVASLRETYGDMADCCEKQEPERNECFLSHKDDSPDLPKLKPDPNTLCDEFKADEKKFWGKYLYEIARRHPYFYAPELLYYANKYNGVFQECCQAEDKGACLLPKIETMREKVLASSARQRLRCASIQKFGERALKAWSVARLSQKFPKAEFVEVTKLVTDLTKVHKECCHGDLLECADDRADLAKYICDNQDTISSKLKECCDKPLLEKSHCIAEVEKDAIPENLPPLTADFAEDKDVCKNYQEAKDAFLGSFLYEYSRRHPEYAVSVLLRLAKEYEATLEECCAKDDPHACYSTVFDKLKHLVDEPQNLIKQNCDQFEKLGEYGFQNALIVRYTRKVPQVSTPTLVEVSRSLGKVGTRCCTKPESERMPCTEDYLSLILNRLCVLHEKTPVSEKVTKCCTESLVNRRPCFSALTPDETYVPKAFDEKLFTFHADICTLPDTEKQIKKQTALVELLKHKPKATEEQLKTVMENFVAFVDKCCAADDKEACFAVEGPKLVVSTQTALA
Experiment [8] in a line: Luminescence Cell-Based Dose Response HTS to Identify Inhibitors of 5'UTR Stem-Loop Driven Prion Protein mRNA Translation in H4 Neuroglioblastoma Cells. [Related pubchem assays: 1827 (Project Summary), 1813 (Primary HTS)]. In kind it is functional.
Experiment [9] deals with INS1. In words: beta cell apoptosis inhibitors, cytokine rescue, dose response, luminescence, retest (AID 449756).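 Also: cell death triggered by IL-1 beta plus TNF-alpha plus IFN-gamma mixture; protective hits raise ATP signal compared with cytokine alone wells.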 It is filed as functional, cell-based. The settings on record: Rattus norvegicus.
Experiment [10] has as its system H9c2. In words: cells. It is filed as functional, cell-based. The settings on record: Rattus norvegicus, H9c2, Myocardium.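 Also: confirmatory concentration-response retest of ultra-high-throughput screening hits for modulation of myocardial damage; cell death induced by hydrogen peroxide oxidative stress; compound pretreatment for 60 min then peroxide exposure for 2 h; potency is for protecting the cells against peroxide damage rather than for killing them.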
Experiment [11] can be described thus: inhibitors of SNCA 5'UTR-driven reporter translation, confirmation, H4 neuroglioma cells, luminescence (AID 1988). In kind it is functional, cell-based.
The nature of experiment [12]: inhibitors of firefly luciferase expression or activity, dose response, H4 neuroglioma cells, luminescence (AID 1990). In kind it is functional, cell-based.
Experiment [13] in a line: cells. In kind it is functional, cell-based.
The nature of experiment [14]: cells. It is filed as functional, cell-based. This is another data set of the same source.
Experiment [15] addresses T2, Histone-lysine N-methyltransferase NSD2 (Homo sapiens, UniProt O96028).
T2 sequence (O96028 whole entry): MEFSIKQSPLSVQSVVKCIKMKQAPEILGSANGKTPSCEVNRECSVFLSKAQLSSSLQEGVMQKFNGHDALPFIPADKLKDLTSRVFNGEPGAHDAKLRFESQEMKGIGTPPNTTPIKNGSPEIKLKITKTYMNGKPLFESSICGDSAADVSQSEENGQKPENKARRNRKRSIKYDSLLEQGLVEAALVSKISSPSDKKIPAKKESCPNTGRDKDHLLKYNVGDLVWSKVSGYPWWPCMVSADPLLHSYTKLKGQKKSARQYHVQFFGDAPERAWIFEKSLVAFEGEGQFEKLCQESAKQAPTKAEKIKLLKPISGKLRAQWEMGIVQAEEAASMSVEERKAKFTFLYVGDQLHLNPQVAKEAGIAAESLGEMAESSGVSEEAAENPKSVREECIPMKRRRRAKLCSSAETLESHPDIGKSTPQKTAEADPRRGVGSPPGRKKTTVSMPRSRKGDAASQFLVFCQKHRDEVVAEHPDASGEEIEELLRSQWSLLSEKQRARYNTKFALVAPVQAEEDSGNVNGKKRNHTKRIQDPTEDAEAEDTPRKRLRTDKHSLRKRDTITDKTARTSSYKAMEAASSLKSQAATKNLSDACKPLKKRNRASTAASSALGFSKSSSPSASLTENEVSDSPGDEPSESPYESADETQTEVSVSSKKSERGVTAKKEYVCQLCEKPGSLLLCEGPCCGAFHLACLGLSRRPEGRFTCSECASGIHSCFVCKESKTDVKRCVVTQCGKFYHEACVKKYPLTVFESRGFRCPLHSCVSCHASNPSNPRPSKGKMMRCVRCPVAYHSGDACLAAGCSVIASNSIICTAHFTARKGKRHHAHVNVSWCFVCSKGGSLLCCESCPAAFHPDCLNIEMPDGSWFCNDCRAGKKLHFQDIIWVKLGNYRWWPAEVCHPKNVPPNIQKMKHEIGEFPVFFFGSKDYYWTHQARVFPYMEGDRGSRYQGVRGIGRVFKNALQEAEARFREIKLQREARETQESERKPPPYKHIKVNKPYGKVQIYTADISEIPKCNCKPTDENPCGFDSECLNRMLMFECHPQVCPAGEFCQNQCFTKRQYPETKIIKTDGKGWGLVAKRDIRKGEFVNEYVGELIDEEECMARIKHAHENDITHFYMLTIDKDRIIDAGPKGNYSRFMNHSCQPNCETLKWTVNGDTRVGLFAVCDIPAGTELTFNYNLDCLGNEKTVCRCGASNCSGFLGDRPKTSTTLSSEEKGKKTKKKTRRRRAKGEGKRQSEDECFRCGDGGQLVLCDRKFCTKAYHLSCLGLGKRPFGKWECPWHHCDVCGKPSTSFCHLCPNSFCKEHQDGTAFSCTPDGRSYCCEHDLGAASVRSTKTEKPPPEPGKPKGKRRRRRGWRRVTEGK
In kind it is biochemical.

For experiment [16], the target named is T3, Long-chain-fatty-acid--AMP ligase FadD28 (Mycobacterium tuberculosis, UniProt P9WQ59).
T3 sequence (P9WQ59 whole entry): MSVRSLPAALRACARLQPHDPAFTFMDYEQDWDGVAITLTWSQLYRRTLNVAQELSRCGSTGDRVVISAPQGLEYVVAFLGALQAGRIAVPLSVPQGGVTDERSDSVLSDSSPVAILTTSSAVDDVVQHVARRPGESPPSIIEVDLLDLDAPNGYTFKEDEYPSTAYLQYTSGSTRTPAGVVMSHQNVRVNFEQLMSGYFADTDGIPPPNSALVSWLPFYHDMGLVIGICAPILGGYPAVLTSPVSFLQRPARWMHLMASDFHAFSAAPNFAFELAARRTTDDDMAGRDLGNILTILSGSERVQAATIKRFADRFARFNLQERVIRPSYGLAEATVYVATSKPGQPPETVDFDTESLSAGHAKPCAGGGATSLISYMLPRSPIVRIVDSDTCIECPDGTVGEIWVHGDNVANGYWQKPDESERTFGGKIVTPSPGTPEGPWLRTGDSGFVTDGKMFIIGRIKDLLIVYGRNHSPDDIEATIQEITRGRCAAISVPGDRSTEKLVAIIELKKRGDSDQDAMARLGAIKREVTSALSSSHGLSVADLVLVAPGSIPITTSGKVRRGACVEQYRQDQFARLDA
The experiment can be described thus: Fluorescence polarization aasay to screen for inhibitors that compete for the binding of FadD28 to a bisubstrate Measured in Biochemical System Using Plate Reader - 2147-01_Inhibitor_Dose_CherryPick_Activity. In kind it is functional, Mycobacterium tuberculosis H37Rv.

Experiment [17] has as its target T1, Short transient receptor potential channel 4. The experiment can be described thus: mouse TRPC4 channel inhibitors, dose response, cell-based, HEK293 TRPC4/mu-opioid, Fluo-4 calcium (AID 434942).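 Also: potency of inhibitors blocking the TRPC4 calcium response.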 It is filed as functional.

As usually defined, the AC50 is the concentration giving half of the maximal activity seen. Usually EC50 stands for the midpoint of the concentration-response curve. Turning to `CCOc1cc(CNCCc2c[nH]c3ccccc23)cc(Cl)c1OC`, the AC50 in [1] is 2.85 µM (active); in [3] it was 21.5 µM (active); in experiment [4] it was 0.843 µM (active); in experiment [5], 1.77 µM (active); in [6], 5.22 µM (active). In addition, the EC50 in experiment [2] was 3.35 µM (active).

One may read the IC50 as the midpoint of a concentration-inhibition curve. For `Cc1ccc(/C=C2\SC(=S)N(CCC(=O)NNC(=O)c3ccccc3O)C2=O)cc1`, in experiment [7], the IC50 is > 94.1 µM (inactive).

In the case of `Cc1cc(Cl)ccc1OCC(=O)N1CCCN(C(=O)COc2ccc(Cl)cc2C)CC1`, the AC50 in experiment [1] is 2.71 µM (active); in [3] it was 67.3 µM (active); in [4] it was 2.8 µM (active); in [5], 1.98 µM (active); in experiment [6], 2.45 µM (active).

In the case of `O=C(CCN1C(=O)/C(=C\c2ccccc2)SC1=S)NNC(=O)c1ccccc1O`, the IC50 in experiment [7] was > 94.1 µM (inactive).

`COc1ccc2nc(Nc3nc(O)cc(CSc4nc5ccccc5[nH]4)n3)nc(C)c2c1`: the AC50 in [1] was 3.06 µM (active); in experiment [9], 20.5 µM (active); in [3], 5.77 µM (active); in experiment [4] it was 3.57 µM (active); in [5], 2.16 µM (active); in experiment [6] it was 4 µM (active). Also, the EC50 in [8] was 10.2 µM (active); in experiment [11] it was 10.2 µM (active); in experiment [12], 5.63 µM (active). The IC50 in experiment [10] is > 79 µM (inactive).

With `CCOC(=O)C(NCCc1ccccc1)(NC(C)=O)C(F)(F)F` (stereo not drawn), the IC50 in experiment [13] was > 29.9 µM (inactive). Moreover, the EC50 in [14] was > 29.9 µM (inactive).

Regarding `COc1ccc(-c2nn(C)c(=O)c3ccccc23)cc1NC(=O)COc1ccccc1`, the results for the AC50 in [1] and in experiment [3] were 46.2 µM (active) and 42.7 µM (active), respectively.

`CC1CCCC(C)N1/N=C/c1ccc(O)c(O)c1` (stereo not drawn): the AC50 in experiment [15] was 9.77 µM (active). In addition, in experiment [7], the IC50 was > 94.1 µM (inactive).

In the case of `O=C(CNC(=O)c1ccccc1Cl)N/N=C/C=C/c1ccccc1`, in experiment [13], the IC50 is > 29.9 µM (inactive). Moreover, in experiment [14], the EC50 is > 29.9 µM (inactive).

For `CC1Oc2ccccc2C=C1/C=N/Nc1ccc(C(=O)O)cc1` (stereo not drawn), in experiment [16], the AC50 is 34.2 µM (active). For the same compound, the EC50 in experiment [17] was 2.99 µM (active).
